The nature of data set [1]: Aqueous solubility (solubility in water). The class given is physicochemical.
The conditions of data set [2]: as stated in U.S. Pat. No. 5,312,925; cited from earlier work.

Where a name gives a salt, the structure may show the parent alone.

In the case of `O=C1Cc2cc(CCN3CCN(c4nsc5ccccc45)CC3)c(Cl)cc2N1` [dihydrate (needle), 5-[2-[4-(1,2-benzisothiazol-3-yl)-1-piperazinyl]ethyl]-6-chloro-1,3-dihydro-2H-indol-2-one Methanesulfonate Dihydrate (Needle Crystals)], the “SOLUBILITY IN WATER” value in data set [1] (aqueous solubility of ziprasidone mesylate polymorphs, water) was found to be 1.10 mg/mL. With `O=C1Cc2cc(CCN3CCN(c4nsc5ccccc45)CC3)c(Cl)cc2N1` [ziprasidone hydrochloride monohydrate], in data set [2], the “hygroscopic stability (in words)” value was “substantially hygroscopically stable”. The “aqueous solubility (in words)” value in data set [1] (qualitative statement, dihydrates compared with ziprasidone hydrochloride monohydrate) was “low aqueous solubility”.

The values are drawn from patent publication US6245765A, “Mesylate dihydrate salts of 5-(2-(4-(1,2-benzisothiazol-3-yl)-1-piperazinyl)-ethyl)-6-chloro-1,3-dihyd ro-2(1H)-indol-2-one (=ziprasidone), its preparation and its use as dopamine D2 antagonist” (Pfizer Inc, priority 1999, dated 2001).
